The nature of data set [1]: Stability of stock solutions (1 mg/mL in DMSO). In kind it is physicochemical. As for the experimental part: (§1) Stock solutions of gnetol and resveratrol-^13C6 (IS) were prepared in DMSO at 1 mg/mL, stored at −20 °C, and protected from light. Calibration standards and QC samples were generated by serially diluting the gnetol stock into pooled blank murine plasma or hepatic homogenate. Stability was assessed under a range of storage and handling conditions. Stock solutions of gnetol and the IS were evaluated after storage on ice (0–4 °C) and at −20 °C. Plasma stability of gnetol was examined under short-term conditions (on ice for 6 h), long-term storage (−80 °C for 7 days), three freeze–thaw cycles, and post-preparative holding (autosampler at 4 °C for 24 h). Because stability is difficult to determine directly in intact tissues, only short-term stability in liver homogenate (on ice for 6 h) was assessed; for processed tissue extracts, post-preparative stability was likewise evaluated using liver homogenate as a representative matrix. Stability was considered acceptable when 85–115% of the initial gnetol concentration remained.

Data set [2] in a line: in vitro. In kind it is in vitro ADME. The settings on record: mouse. As for the experimental part:
as §1, with “Stability” for “Stock solutions of gnetol and resveratrol-^13C6 (IS) were prepared in DMSO at 1 mg/mL, stored at −20 °C, and protected from light. Calibration standards and QC samples were generated by serially diluting the gnetol stock into pooled blank murine plasma or hepatic homogenate. Stability”

The subject of data set [3] is tyrosinase. The settings on record: cited from earlier work.
For data set [4], the system named is SARS-CoV-2 main protease. Further details: method as in PMID 39653224. The settings on record: cited from earlier work.

Like-named read-outs stand apart in the source and are kept apart here.

For `Oc1cc(O)cc(/C=C/c2c(O)cccc2O)c1` [Gnetol, trans-2,3′,5′,6-tetrahydroxystilbene], in data set [1], the fraction remaining at 24 h, 1 mg/mL came to 101 ± 5.3% and the fraction remaining at 168 h, 1 mg/mL is 98.2 ± 3.9%. Besides, in data set [2] (plasma), the fraction remaining at 15 ng/mL was determined as 103 ± 11.6%; the amount remaining at 1200 ng/mL stood at 112 ± 2.2%; the fraction remaining at 6 h, 15 ng/mL was found to be 100 ± 7.3%; the fraction remaining at 6 h, 1200 ng/mL is 106 ± 1.8%. In data set [2] (plasma), the share remaining at 24 h, 15 ng/mL stood at 94 ± 7.7%; the fraction remaining at 24 h, 1200 ng/mL is 103 ± 7.6%; the fraction remaining at 168 h, 15 ng/mL came out at 97.2 ± 6.3%; the amount remaining at 168 h, 1200 ng/mL came out at 112 ± 2.5%. Besides, in data set [2] (tissue homogenate), the share remaining at 6 h, 15 ng/mL is 96.1 ± 11.3%; the fraction remaining at 6 h, 1200 ng/mL was determined as 110 ± 4.4%; the fraction remaining at 24 h, 15 ng/mL was found to be 104 ± 4.5%; the fraction remaining at 24 h, 1200 ng/mL came out at 88.9 ± 6.4%. Moreover, the Tyrosinase inhibition result in data set [3] is on record as “potent tyrosinase inhibitor”. Besides, the “Inhibition of SARS-CoV-2 main protease” value in data set [4] is “inhibits the SARS-CoV-2 main protease”.
For `Oc1cc(O)cc(/C=C/[13c]2[13cH][13cH][13c](O)[13cH][13cH]2)c1` [Resveratrol-^13C6, trans-3,5,4′-trihydroxystilbene-^13C6, reference compound], the share remaining at 24 h, 1 mg/mL in data set [1] (stock solution in DMSO, stock solution 1.00 mg/mL, stored at ice-cold temperature for 24 h, n = 6, read-out: Remaining (%, Mean ± SD)) turned out to be 98.2 ± 3.9%. The share remaining at 168 h, 1 mg/mL in data set [1] (stock solution in DMSO, stock solution 1.00 mg/mL, stored at −20 °C for 7 days, n = 6, read-out: Remaining (%, Mean ± SD)) is 100 ± 3.6%.

The record behind these values is article PMC12610539, “Determination of Gnetol in Murine Biological Matrices by Liquid Chromatography–Tandem Mass Spectrometry (LC–MS/MS): Application in a Biodistribution Study” (International Journal of Molecular Sciences, 2025).
